Data taken from US9802897B2, “Amidopyridinol derivative or pharmaceutically acceptable salt thereof and pharmaceutical composition comprising same as active component” (Research Cooperation Foundation of Yeungnam University, priority 2013, dated 2017).
Where “and” joins values, the source holds several entries; their conditions need not be identical. Equal entries are not always repeated.

Key:
[1] = system: HT-29 cells / U937 cells; assay: TNF-α-induced adhesion of HT-29 intestinal epithelial cells and U937 mononuclear cells; assay type: cell-based, human; conditions: Homo sapiens, TNF-α 10 ng/ml, read-out: Inhibitory rates (%); for inhibition at 1 µM: pre-treated 1 hour
Description: HT-29 cells were cultured in a 24-well plate at a concentration of […] cells/cm^2, and meanwhile, amidopyridinol compounds 8a to 8z were pre-treated for 1 hour at each concentration in a serum-free medium supplemented only with 1% PS. Next, 10 ng/ml of TNF-α was treated therewith to allow a reaction at a temperature of 37° C. for 3 hours. After the completion of the reaction, the medium of the HT-29 cells was removed, and then, the HT-29 cells were washed with PBS once. Afterwards, U937 cells, which were treated and reacted with 10 μg/mL of BCECF-AM at a temperature of 37° C. for 30 minutes, were allowed to react with the HT-29 cells at temperature of 37° C. for 1 hour. Then, to remove U937 cells that were not adhered to the HT-29 cells, the reacted cells were washed with PBS twice. In terms of cell dissolution, 0.1% Triton X-100 in 0.1M Tris was allowed to react with the cells for 30 minutes at room temperature, and then, the cells were subjected to quantify by measuring fluorescence thereof using the Fluostar optima microplate reader (BMG Labtechnologies, Germany).

[2] = system: TNBS-induced colitis; assay: TNBS-induced colitis model of inflammatory bowel disease; assay type: in vivo, rat (Sprague Dawley); conditions: for conditions of the large intestine observed with the naked eye / changes in weights of the rat: TNBS-induced rats; for weight of the large intestine: vs TNBS-treated group
Source text: To see alleviating effects of the compounds of the present invention on colitis, an animal model induced by TNBS and having colitis was used for the experiments. The animal used herein was a 7 to 8 week Sprague Dawley species purchased from Samtaco Bio Korea. After the purchase, the animal was stabilized with typical solid feed for 2 days before being used for the experiments. The animal was freely supplied with feed and water during the experiments, and stayed in conditions maintaining a cage temperature of about 25±1° C. and relative humidity of about 50±10%. The cage was equipped with an automatic lightening system to adjust 12-hour light-dark cycle.
In regard to the experimental groups, 5 groups (i.e., a control group, a group administered with TNBS only, […], […], […]) were used according to the randomized block design, wherein each group consists of 6 rats having an average weight of about 180±10 g. The rats that had been fasting for 24 hours were anesthetized with diethylether (Et2O), and then, a 1 mL syringe connected with a polyethylene catheter was used to slowly inject 0.8 mL of 3% TNBS into colonic enema through the anus, wherein TNBS was diluted with 50% (v/v) ethanol. To prevent leakage of 3% TNBS from the anus, the rats turned upside down and let stand for 60 minutes.
In regard to the control group, only a vehicle (50% (v/v) ethanol) was injected into the rats of the control group in the same manner as in preparation of other experimental groups. To examine the effects of the drug, after being fasting for 24 hours, the rats were administered with drugs, i.e., 0.1 mg/kg or 1.0 mg/kg of Compounds 8a and 8j, once a day at a certain time from the second day to the fifth day of the TNBS treatment. As a comparative experimental material, 5-ASA, which is an active metabolite of sulfasalazine that is the most well-known as a therapeutic agent for IBDs, was used as a positive control group.
All the rats were scarified on the seventh day of the TNBS administration. […] After the large intestine of the rat was harvested, a 5 to 6 cm-long tissue from was cut from the anus to a size of 1 cm, and then, subjected to measure an intestine weight and activation of myeloperoxidase (MPO) in the tissue, and to perform a biopsy. In addition, changes in weight of all the animals used in the experiments were observed by using a digital mass meter, beginning from the fasting step, the TNBS administration, and the drug administration. In consideration of the management and use of laboratory animals, the animal experiments were followed according to institutional guidelines from Laboratory Animal Resources, Yeungnam University.
To measure the activation of MPO, an MPO assay was used. The colorectal tissue was washed with cold PBS, and a weight thereof was measured. Then, 200 μL of lysis buffer (pH7.4, 200 mM NaCl, 5 mM EDTA, 10 mM Tris, 10% glycerol) was added for each 10 mg of the weight of the tissue, and then, the tissue homogenizer (Bio homogenizer M133, BIOSPEC PRODUCTS Inc. USA) was used for 30 seconds in terms of homogenization. The homogenized sample was subjected to centrifugation (1500×g) twice, each for 15 minutes. The supernatant obtained therefrom was used to measure the activation of MPO by using the MPO ELISA kit (HK210, Hycult Biotechnology, Netherlands). 100 μL of the supernatant was added to the 96-well plates, each of which well was coated with an anti-mouse MPO antibody, to allow a reaction at room temperature for 1 hour, followed by being washed with PBS three times. Here, 100 μL of a reconstituted tracer was added thereto to allow a reaction at room temperature for 1 hour, followed by being washed three times repeatedly. Then, 100 μL of a reptavidin-peroxidase conjugate was added thereto to allow a reaction at room temperature for 1 hours, followed being washed. Then, 100 μL of a TMB substrate solution was added thereto to allow a reaction for 30 minutes. […]

[3] = system: A549 lung cancer cells; assay: CAM inoculated with A549 lung cancer cells: angiogenesis and tumor growth; assay type: in vivo, chicken; conditions: for Inhibition rates of angiogenesis (%) / Inhibition rates of tumor growth (%): A549 on CAM, 5 days
Description: To confirm inhibitory effects on angiogenesis through in vivo experiments, the CAM analysis was carried out (refer to Nguyen M et al., Microvascular Res., 47, pp 31-40, 1994). A fertilized egg of a chicken was cultured in conditions maintaining a temperature of 37° C. and relative humidity of 55%. On the 9th day of the culturing, a first small hole was made on an air sac part using a hypodermic needle (Green Cross Medical Corp., Korea), and then, a second hole was made on a flat part of the fertilized egg to make a window thereon. Air was removed through the first hole, i.e., the air sac part, and accordingly, the CAM was separated from the shell of the fertilized egg. Then, a grinding wheel (Multipro 395JA, Dremel, Mexico) was used to cut the air sac part, thereby making a window thereon. Meanwhile, A549 lung cancer cells were mixed with matrigel at a ratio of 1:1, and then, the mixture was treated with Compounds 8a, 8b, and 8g, respectively, followed by being inoculated at a density of 1.5×10^6 cells/CAM.
After 5 days of the inoculation, the CAM part on which tumors were formed was isolated, and then, washed with PBS. The Stemi SV6 stereomicroscope (Carl Zeiss, Germany) and the Image-Pro Plus software (Media Cybernetics; Silver Spring, Md., USA) were used to capture images of the CAM part, so as to measure the number of the blood vessels and to analyze data obtained therefrom.

[4] = system: VEGF-induced angiogenesis in chicken chorioallantoic membrane (CAM); assay: CAM analysis of VEGF-induced angiogenesis; assay type: in vivo; conditions: for inhibition in vivo at 0.01 nmol/CAM: Gallus gallus, 72 h, VEGF (20 ng/CAM) + Compound (0.01 nmol/CAM), number of blood vessels after 3 days, read-out: Inhibitory rates (%)
Description: To confirm inhibitory effects on angiogenesis through in vivo experiments, the chorioallantoic membrane (CAM) analysis was carried out (refer to Nguyen M et al., Microvascular Res., 47, pp 31-40, 1994). A fertilized egg of a chicken was cultured in conditions maintaining a temperature of 37° C. and relative humidity of 55%. On the 10th day of the culturing, a first small hole was made on an air sac part using a hypodermic needle (Green Cross Medical Corp., Korea), and then, a second hole was made on a flat part of the fertilized egg to make a window thereon. Air was removed through the first hole, i.e., the air sac part, and accordingly, the CAM was separated from the shell of the fertilized egg. Then, a grinding wheel (Multipro 395JA, Dremel, Mexico) was used to cut the air sac part, thereby making a window thereon. Next, the whatman filter disk #1 (Whatman Company, USA) was treated with 3 mg/mL of cortisone acetate, dried, and then, wet by VEGF at a concentration of 20 ng/CAM. The filter disk was placed on blood vessels through the window, and then, compounds prepared according to Examples above were each dissolved in DMSO, diluted with PBS, and then, treated for each concentration. After 3 days of treating the compounds, the CAM part on which the filter disk was placed was isolated, and then, washed with PBS. The Stemi SV6 stereomicroscope (Carl Zeiss, Germany) and the Image-Pro Plus software (Media Cybernetics; Silver Spring, Md., USA) were used to capture images of the CAM part, so as to measure the number of the blood vessels and to analyze data obtained therefrom.

[5] = system: cathepsin S; assay: RT-PCR of cathepsin S gene expression in MDA-MB-231 cells; assay type: cell-based; conditions: Homo sapiens, MDA-MB-231, 24 h, screening, 1 μM of each compound; MDA-MB-231, RT-PCR; read-out: Inhibition rate of expression of cathepsin S (%)
Description: Each compound of the present invention was treated with breast cancer cells (1×10^5 cell/cm^2), e.g., MDA-MB-231, and then, cultured at a temperature of 37° C. for 24 hours in a cell incubator. Afterwards, a trizole reagent was used to extract the entire mRNA therefrom. 24 hours later, the culture medium was removed therefrom, 1 mL of the triazole reagent was added to each well, and then, the cell elusion was transferred to a 1.5 mL tube. After 200 μl of chloroform was added to each sample, the samples were subjected to centrifugation at a temperature of 4° C., at 12,000 g, for 15 minutes. 500 μl of the supernatant obtained therefrom was transferred to a new tube. After 500 μl of isopropylalcohol was added to each sample, the samples were subjected to centrifugation at a temperature of 4° C., at 12,000 g, for 15 minutes. The supernatant obtained therefrom was removed from each sample, and then, the samples were washed with 75% ethanol to clean mRNA while the precipitants were dried. Then, mRNA extracted therefrom was dissolved in RNase-free water, followed by being heated at a temperature of 55° C. for 10 minutes.
After the RNA quantification, the GoScript™ reverse transcription system (Promega Corporation, Madison, Wis., USA) was used to synthesize cDNA. Here, PCR was performed by using TaKaRa Taq™ (Takara bio Inc., Shiga, Japan), wherein a primer set of cathepsin S consists of a forward primer having SEQ ID NO: 1 (forward sequence: 5′-GCAGTGGCACAGTTGCATAA-3′) and a reverse primer having SEQ ID NO: 2 (reverse sequence: 5′-AGCACCACAAGAACCCATGT-3′). After the PCR product was subjected to agarose gel electrophoresis, the PCR product was stained with ethidium bromide (0.5 μg/ml), thereby obtaining images thereof by using the gel imaging system (UVP, Cambridge, UK). Here, the PCR product was quantified based on glyceraldehyde 3-phosphate dehydrogenase (GAPDH). A GAPDH primer used herein consists of a forward primer having SEQ ID NO: 3 (forward sequence: 5′-GGTGAAGGTCGGAGTCAACG-3′) and a reverse primer having SEQ ID NO: 4 (reverse sequence: 5′-CAAAGTTGTCATGGATGACC-3′).
Furthermore, to screen other amidopyridinol derivatives that inhibit metastasis of breast cancer cells, inhibitory effects on expression of cathepsin S genes were reviewed by treating 1 μM of each compound, in the same manner as in Experimental Example 9.

Nc1ccc(O)c(C(=O)O)c1 [Compound 5-ASA, 5-aminosalicylic acid, reference compound]
inhibition at 20000 µM ([1]; 20 mM): 46.8% | activation of myeloperoxidase (MPO) in colorectal tissue ([2]; 100 mg/kg): significantly decreased activation of MPO | conditions of the large intestine observed with the naked eye ([2]; 100 mg/kg): significantly inhibited | weight of the large intestine ([2]; 100 mg/kg): significantly decreased | changes in weights of the rat ([2]; 300 mg/kg): slowly recovered on the third day

Cc1nc(NC(=O)C2CCCC2)c(C)c(C)c1O [Compound 8g, N-(5-hydroxy-3,4,6-trimethylpyridine-2-yl)cyclopentane carboxamide]
Inhibition rates of angiogenesis (%) ([3]; 0.001 pmol/CAM): 30.9 ± 8.5 % | Inhibition rates of tumor growth (%) ([3]; 0.001 pmol/CAM): 13.2 ± 3.5% | Inhibition rates of angiogenesis (%) ([3]; 0.01 pmol/CAM): 48.4 ± 4.1 % | Inhibition rates of tumor growth (%) ([3]; 0.01 pmol/CAM): 24.0 ± 1.6 % | Inhibition rates of angiogenesis (%) ([3]; 0.1 pmol/CAM): 54.4 ± 6.7 % | Inhibition rates of tumor growth (%) ([3]; 0.1 pmol/CAM): 45.1 ± 3.1 % | Inhibition rates of angiogenesis (%) ([3]; 1.0 pmol/CAM): 58.1 ± 6.8 % | Inhibition rates of tumor growth (%) ([3]; 1.0 pmol/CAM): 62.7 ± 2.3 % | inhibitory effects on angiogenesis and tumor growth (in words) ([3]; at each density): inhibited angiogenesis upon tumorigenesis, as well as tumor growth | inhibition at 1 µM [1]: 42.8% | inhibition in vivo at 0.01 nmol/CAM [4]: 81.8 ± 8.4% | ID50 against inhibition of angiogenesis ([4]; VEGF-induced CAM angiogenesis): 0.9 pg/CAM and 3.6 fmol/CAM | inhibition at 1 µM [5]: ≥ 50%

Cc1nc(NC(=O)CCc2ccccc2)c(C)c(C)c1O [Compound 8j, N-(5-hydroxy-3,4,6-trimethylpyridine-2-yl)-3-phenylpropanamide]
inhibition at 1 µM [1]: 72.5% | inhibition in vivo at 0.01 nmol/CAM [4]: 74.2 ± 3.9% | changes in weights of the rat ([2]; 1.0 mg/kg once a day): significant weight recovery and increased weight | conditions of the large intestine observed with the naked eye ([2]; 1.0 mg/kg): excellent inhibitory effects on swelling and congestion | weight of the large intestine ([2]; 1.0 mg/kg): significantly decreased
